# Test results: US20140241990A1, “METHODS OF USING ADENOSINE A1 RECEPTOR ACTIVATION FOR TREATING DEPRESSION” (TUFTS UNIVERSITY, priority 2011, published 2014)
# “Also recorded” adds a separate entry of the source.
# Experiments:
# mice [1] = assay: Open field test (locomotor activity); type: in vivo, mouse; conditions: wildtype mice treated i.c.v.
# Protocol: The open field test was performed in accordance with the […] resource phenotyping protocol (Brown, S. et al., Nat. Genet., 37:1155, 2005). Open field behavior of mice was videorecorded from above, and assessed using Ethovision. Results from tracking analysis were analyzed using ANOVA to compare means.
# C57Bl/6J mice [2] = assay: Tail suspension test (TST); type: in vivo, mouse; conditions: CPT 4 mM i.c.v.
# Protocol: Results from tracking analysis were analyzed using ANOVA to compare means.
# A1R = biological target: T1, A1R (Mus musculus, UniProt Q60612); assay: fEPSP enhancement at Schaeffer collateral synapse of hippocampal area CA1 in acute slices (adenosine tone); type: cell-based; conditions: CPT 200 nM
# T1 construct: from tissue; host or cells: acute mouse hippocampal slices (C57Bl/6J background; wild type and dnSNARE mice)
# T1 sequence (Q60612 1-326): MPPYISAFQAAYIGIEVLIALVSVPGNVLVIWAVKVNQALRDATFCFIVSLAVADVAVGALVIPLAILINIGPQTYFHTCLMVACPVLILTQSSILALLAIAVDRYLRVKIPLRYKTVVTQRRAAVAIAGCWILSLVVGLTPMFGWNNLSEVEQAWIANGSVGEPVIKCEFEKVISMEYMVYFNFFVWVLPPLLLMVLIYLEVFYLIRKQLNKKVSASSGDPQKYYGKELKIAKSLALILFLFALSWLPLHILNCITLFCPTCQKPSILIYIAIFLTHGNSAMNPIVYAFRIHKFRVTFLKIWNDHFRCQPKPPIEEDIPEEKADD
# Protocol: Mice were briefly anaesthetized with isofluorane and then decapitated, and slices were prepared (Manzoni, O. et al., Science, 265:2098-101, 1994). The brain was rapidly extracted in cold cutting solution (124 mM NaCl, 26 mM NaHCO3, 1 mM NaHPO4, 10 mM Glucose, 1 mM sodium pyruvate, 0.6 mM ascorbate, 2.9 mM KCl, 1 mM CaCl2, 2 mM MgCl2) bubbled continuously with a 95% O2 5% CO2 gas mixture. Slices 310 μm thick were cut using a Leica VT 1000S Vibratome. Isolated hippocampal slices were transferred to a bath containing continuously oxygenated cutting solution and incubated at 30 C for a 1.5 hour recovery period. Extracellular recordings were conducted in artificial cerebrospinal fluid (aCSF, 124 mM NaCl, 26 mM NaHCO3, 1 mM NaHPO4, 10 mM Glucose, 1 mM sodium pyruvate, 2.9 mM KCl, 2 mM CaCl2, 1 mM MgCl2) continuously superfused at 1.2 mL/minute and maintained at 32.8 C. Extracellular stimulation were delivered using a 125 μm concentric Pt—Ir electrode in unipolar mode with a pulse width of 0.1 ms.
# A relative measure of the extracellular adenosine level can be obtained by determining the proportional enhancement of synaptic transmission in response to the application of the A1R antagonist 8-cyclopentyltheophylline (CPT; 200 nM) an approach that has been validated using electrochemical biosensors (Schmitt, L. et al., J. Neurosci., 32:4417-25, 2012).
# The physiological mechanisms underlying the effects of sleep deprivation was investigated by asking whether sleep deprivation leads to an elevation of extracellular adenosine. A relative measure of the extracellular adenosine level can be obtained by determining the proportional enhancement of synaptic transmission in response to the application of the A1R antagonist 8-cyclopentyltheophylline (CPT; 200 nM). Independent measurements of extracellular adenosine using electrochemical biosensors have validated this approach. Field excitatory postsynaptic potentials (fEPSP) were measured at the Schaeffer collateral synapse of hippocampal area CA1 before and following application of CPT.
# C57Bl/6J mice [3] = assay: Forced swim test (FST); type: in vivo, mouse; conditions: for duration of reduced immobility in forced swim test after onset of administration: cohorts tested 12, 36, 84 and 108 hours after first treatment
# Protocol: The forced swim test is typically performed in a quiet experimental room as described in previous reports (Porsolt, R. et al., Arch. Int. Pharmacodyn. Ther., 229:327-336, 1977). For a typical test, animals are placed, for example, into a plexiglass cylinder (25 cm height, 25 cm diameter) containing 20 cm height of water at 23-25 C for 10 min. The animals typically display very fast swimming initially, lasting 1-2 min, followed by increasing immobility. Immobile time is measured during the last 4 min of the total period for statistical analysis. The animals are videotaped and movements are digitized from above. Immobility can be automatically scored, for example, using Ethovision (Noldus Information Technology Inc., Leesburg, U.S.A.).
# The forced swim test (FST) was performed in a quiet experimental room. Animals where placed into a Plexiglass cylinder (25 cm height, 25 cm diameter) containing 20 cm height of water at 23-25° C. for 10 min. […] Immobile time was measured during the last 4 min of the total period for statistical analysis. The animals were videotaped and movements were digitized from above. Immobility was automatically scored using Ethovision (Noldus Information Technology Inc., Leesburg, U.S.A.). Results from tracking analysis were analyzed using ANOVA to compare means.
# mice [4] = assay: Rotorod test; type: in vivo, mouse; conditions: CCPA versus vehicle
# Source text: The rotorod used a rotating cylinder that was 4 cm in diameter, fixed 35 cm above the ground and enclosed by transparent Plexiglas. The rotorod cylinder was covered in textured rubber coating, which facilitates traction. A small electric motor provided power to turn the rotorod via a rubber belt. The rotorod was set to rotate once every 5 s.
# mice [5] = assay: EEG/EMG recording, vigilance state scoring and power spectra; type: in vivo, mouse
# Source text: Mice were implanted with EEG and EMG electrodes under ketamine/xylazine anesthesia. After 5-7 days of post-operative recovery, lightweight recording cables were connected to the head implants and mice were placed in cylindrical polypropylene containers containing nest material, water and food ad libitum. Mice were acclimated to the sleep chamber for 5-7 days (12:12 light-dark (LD) cycle; lights on at 8 AM). EEGs and EMGs were then collected on a Pinnacle Technologies system and digitized at 1000 Hz. Following acclimation, baseline 24 h recordings were made.
# NonREM sleep (“NREM” sleep), REM sleep and wake were determined by an experimenter blind to experimental condition. On the baseline day, the amount of each state (expressed as a percentage of total recording time) and the duration of individual sleep and wake episodes were computed. Transitions between NREM sleep and REM sleep were also measured during the light phase. To investigate sleep the beneficial effects of sleep deprivation mice, mice were sleep deprived (SD) from 8 a.m. to 8 p.m. at the beginning of the major sleep period (light phase) using a Pinnacle sleep deprivation chamber. All EEG data were analyzed by normalizing each data point to the average power of the EEG from 0.5 to 40 Hz (FIG. 4), and by normalizing each data point (+12 hr, +36 hr, +84 hr, +108 hr) to the corresponding vehicle data points (FIG. 8).
# To investigate whether A1R activation alone is capable of altering the sleep architecture and mimicking the effects of sleep deprivation, the adenosine receptor agonist 2-chloro-N(6)-cyclopentyladenosine (CCPA; […]) was administered via i.c.v. cannulae. Following recovery and one week of habituation to the headstage, EEG activity was recorded from mice with i.c.v. saline vehicle infusion for two days to establish baseline EEG activity patterns. The EEG changes following injection of the A1R agonist CCPA were monitored. […] The normalized power from 0.5 to 4.0 Hz was also analyzed, comparing saline baseline to CCPA infusion (FIG. 4D).
# Adenosine agonists cause a sustained enhancement of delta power during wakefulness. As a final step in testing the antidepressive actions of adenosine activation of A1Rs was determined to be sufficient to mimic the effects of sleep deprivation on depressive-like behaviors. […] The adenosine receptor agonist 2-chloro-N(6)-cyclopentyladenosine (CCPA; 500 nM) was delivered i.c.v. while performing EEG/EMG recordings.
# mice [6] = assay: Sucrose consumption test (anhedonia); type: in vivo, mouse; conditions: i.c.v. CCPA, three bolus injections at ZT=0, 3 and 6; vehicle baseline 30.55±3.60 g/kg; p=0.008
# Protocol: Sucrose consumption experiments can be conducted known to one of skill in the art. For a typical test, mice are gradually acclimatized to increasing durations of water deprivation (0, 4, 8, 12, and 16 hours) and i.c.v. infusion of saline over the course of five days to minimize the stressfulness of the testing. On the sixth day, instead of receiving water at the end of the deprivation period, mice are given a 1% v/w solution of sucrose. This is repeated for three days (days 6-9) to establish baseline sucrose consumption levels. During the deprivation period preceding day 10, mice are given i.c.v. infusions of the identified test compound, followed by the presentation of sucrose as during baseline consumption testing. The average baseline (saline infusion) sucrose consumption is then compared to the average sucrose consumption following test compound infusion. Results are analyzed using a Student's t-test to compare means.
# Sucrose consumption was conducted (Papp, M. et al., Psychopharmacology (Berl.), 104:255-9, 1991). After the acclimatization and habituation period mice were given access to sucrose for three days (days 6-9) to establish baseline sucrose consumption levels. Mice were then given i.c.v. infusions of CCPA administered as a series of three bolus injections at ZT=0, 3 and 6, followed by the presentation of sucrose (day 10). […]
# [7] = CCPA 500 nm i.c.v., percentage of recording time
smiles,measurement,setting,value
"Cn1c(=O)c2[nH]c(C3CCCC3)nc2n(C)c1=O [CPT, 8-cyclopentyltheophylline]",locomotor activity / total distance traveled in open field,mice [1],do not differ
same,"basal immobility, tail suspension test",C57Bl/6J mice [2]; no sleep deprivation,187.60 ± 11.46 s
same,"immobility after sleep deprivation, tail suspension test",C57Bl/6J mice [2]; sleep deprivation,204.00 ± 3.58 s
same,increase in fEPSP (adenosine tone),"A1R; WT undisturbed mice, ZT=0",481.70±85.04%
same,proportional enhancement of fEPSP (adenosine tone),"A1R; WT, ZT=12 (end of light phase)",128.15±28.91%
same,adenosine tone (fEPSP enhancement),"A1R; after 72 h of sleep deprivation, ZT=0",104.62±18.31%
same,adenosine tone (fEPSP enhancement),"A1R; dnSNARE, ZT=0",61.98±16.80%
same,adenosine tone (fEPSP enhancement),"A1R; dnSNARE, ZT=12",27.91±5.10%
same,adenosine tone (fEPSP enhancement),A1R; transient total sleep deprivation ZT 0 to ZT 12,367.61±24.95%
same,"basal immobility, forced swim test","C57Bl/6J mice [3]; CPT 4 mM i.c.v., no sleep deprivation",176.43 ± 21.77 s
same,"immobility after sleep deprivation, forced swim test","C57Bl/6J mice [3]; CPT 4 mM i.c.v., sleep deprivation",167.70 ± 18.89 s
"OCC1OC(n2cnc3c(NC4CCCC4)nc(Cl)nc32)C(O)C1O (centres unmarked) [CCPA, 2-(2-chloro-6-(cyclopentylamino)-9H-purin-9-yl)-5-(hydroxymethyl)tetrahydrofuran-3,4-diol]",locomotor activity / total distance traveled in open field,mice [1],without accompanying changes in locomotor activity; also recorded: do not differ
same,latency to fall / locomotor activity in rotorod test,mice [4],without accompanying changes in locomotor activity; also recorded: do not differ
same,percent wake at 12 h after administration,mice [5]; 12 h (ZT 12) after CCPA,significantly greater percentage of time awake; also recorded: increased percent wake
same,increased percent wake at 36 h after administration,mice [5]; 36 h following CCPA,no longer present
same,EEG power spectra compared to baseline saline,mice [5]; CCPA 500 nm i.c.v.,dramatic increase in the power spectra
same,duration of REM sleep,mice [5]; [7],18.13±1.30%
same,duration of non-REM sleep,mice [5]; [7],48.75±1.85%
same,duration of wake,mice [5]; [7],31.38±1.93%
same,delta power (0.5-4 Hz) during wakefulness after mice awoke,"mice [5]; CCPA i.c.v. ZT=0, 3 and 6, p<0.001",prominent increase in delta power
same,percentage of time awake during administration,"mice [5]; CCPA i.c.v. infusion, 500 nM",transient decrease; also recorded: decreased
same,acute effect on delta power,"mice [5]; acute, during CCPA action",reduce delta power
same,time after last administration by which effects on sleep had reversed,"mice [5]; reversed by ZT=11, last administration at ZT=6",≤ 5 h
same,time asleep ZT 1 through 10 compared to vehicle,"mice [5]; three consecutive CCPA infusions (ZT=0, 3, 6), 500 nM i.c.v., p<0.002",significantly greater time
same,sucrose consumption,mice [6],51.45 ± 6.35 g/kg
same,beneficial effects in forced swim test 3 and 5 days after infusion,C57Bl/6J mice [3]; 3 and 5 days after infusion,no longer observed
same,"effect on immobile time, forced swim test","C57Bl/6J mice [3]; CCPA i.c.v. (ZT=0, 3 and 6), tested at ZT=12",decreased immobile time; also recorded: reduction in immobile time; also recorded: significantly reduces immobility
same,duration of reduced immobility in forced swim test after onset of administration,C57Bl/6J mice [3],36 h
same,duration of reduced immobility in forced swim test after onset of administration,C57Bl/6J mice [3]; listed as COPA,up to 36 hours
same,duration of beneficial effects in forced swim test,"C57Bl/6J mice [3]; three i.c.v. injections spaced evenly across a 12 hour period, cohorts at 24 hours, +1, +3, +5 days",24 h
CN(C)CCCN1c2ccccc2CCc2ccccc21 [imipramine],immobility in behavioral despair tasks,C57Bl/6J mice [3]; 14 days of treatment,reduces immobility
same,"time spent immobile, forced swim test","C57Bl/6J mice [3]; wildtype littermates, imipramine 20 mg/kg, chronic 14 days",73.00 ± 9.53 s
